{
  "source": "patent US20130072430A1",
  "about": "“METHODS FOR TREATMENT OR PROPHYLAXIS OF KIDNEY OR LIVER DYSFUNCTION” (NPS PHARMACEUTICALS, INC., priority 2010, published 2013)",
  "system": "Human patients with short bowel syndrome",
  "experiment": "Example 1: kidney diagnostic biomarkers (urea nitrogen, creatinine, GFR) in short bowel syndrome patients, every four weeks for 24 weeks",
  "assay_type": "in vivo",
  "design": "CREATININE (RATE BLANKED) Change from Baseline, Median / GFR, Median / GFR Change from Baseline, Median / UREA NITROGEN, Median / UREA NITROGEN Change from Baseline, Median: unit not given here",
  "conditions": "0.05 mg/kg/day; for CREATININE (RATE BLANKED), Median: unit assumed",
  "description": "Human patients with short bowel syndrome were divided into three groups: a control group (16 total individuals) to receive placebo, an experimental group (35 total individuals) to receive teduglutide at 0.05 mg/kg/day throughout the study, and an experimental group (32 total individuals) to receive teduglutide at 0.1 mg/kg/day throughout the study. Patients were treated by subcutaneous injection of placebo or the appropriate dose of teduglutide. As individuals with short bowel syndrome are likely to experience associated liver and kidney disease, known biomarkers of liver and kidney function were monitored every four weeks, for 24 weeks. The liver biomarkers tested included total bilirubin, ALT and AST and ALP. The kidney biomarkers tested included urea nitrogen, creatinine and GFR. Before administration of placebo or teduglutide, diagnostic biomarker levels were tested to establish a baseline for each individual.\nTo visualize the effect of GLP-2 on the levels of the diagnostic biomarkers, the average change from baseline was calculated for the placebo and teduglutide treated groups for each visit after a baseline was established. The average change from baseline of each group is depicted in FIGS. […]. The numerical figures for each diaanostic biomarker at each time point are depicted in Table 1.\nThe raw data for this sorting is reproduced in Table 2 below.",
  "data": [
    {"smiles": "CC[C@H](C)[C@H](NC(=O)[C@H](Cc1ccccc1)NC(=O)[C@H](CC(=O)O)NC(=O)[C@H](CCCNC(=N)N)NC(=O)[C@H](C)NC(=O)[C@H](C)NC(=O)[C@H](CC(C)C)NC(=O)[C@H](CC(N)=O)NC(=O)[C@H](CC(=O)O)NC(=O)[C@H](CC(C)C)NC(=O)[C@@H](NC(=O)[C@@H](NC(=O)[C@H](CC(N)=O)NC(=O)[C@H](CCSC)NC(=O)[C@H](CCC(=O)O)NC(=O)[C@H](CC(=O)O)NC(=O)[C@H](CO)NC(=O)[C@H](Cc1ccccc1)NC(=O)[C@H](CO)NC(=O)CNC(=O)[C@H](CC(=O)O)NC(=O)CNC(=O)[C@@H](N)Cc1c[nH]cn1)[C@@H](C)O)[C@@H](C)CC)C(=O)N[C@@H](CC(N)=O)C(=O)N[C@@H](Cc1c[nH]c2ccccc12)C(=O)N[C@@H](CC(C)C)C(=O)N[C@H](C(=O)N[C@@H](CCC(N)=O)C(=O)N[C@H](C(=O)N[C@@H](CCCCN)C(=O)N[C@H](C(=O)N[C@H](C(=O)N[C@@H](CC(=O)O)C(=O)O)[C@@H](C)O)[C@@H](C)CC)[C@@H](C)O)[C@@H](C)CC", "note": "[teduglutide]", "values": [
      {"measurement": "CREATININE (RATE BLANKED) Change from Baseline, Mean (SD)", "setting": "DW4", "value": "1.2 (12.01)"},
      {"measurement": "CREATININE (RATE BLANKED) Change from Baseline, Median", "setting": "DW4", "value": 1.5},
      {"measurement": "CREATININE (RATE BLANKED), Mean (SD)", "setting": "DW4", "value": "84.8 (30.01)"},
      {"measurement": "GFR Change from Baseline, Mean (SD)", "setting": "DW4", "value": "−1.4 (12.80)"},
      {"measurement": "GFR Change from Baseline, Median", "setting": "DW4", "value": "−0.6"},
      {"measurement": "GFR, Mean (SD)", "setting": "DW4", "value": "86.1 (36.99)"},
      {"measurement": "GFR, Median", "setting": "DW4", "value": 77.0},
      {"measurement": "UREA NITROGEN Change from Baseline, Mean (SD)", "setting": "DW4", "value": "−0.4 (2.16)"},
      {"measurement": "UREA NITROGEN Change from Baseline, Median", "setting": "DW4", "value": "−0.4"},
      {"measurement": "UREA NITROGEN, Mean (SD)", "setting": "DW4", "value": "5.3 (2.09)"},
      {"measurement": "UREA NITROGEN, Median", "setting": "DW4", "value": 4.9},
      {"measurement": "CREATININE (RATE BLANKED), Median", "setting": "DW4", "value": 80, "unit": "µmol/L"},
      {"measurement": "CREATININE (RATE BLANKED) Change from Baseline, Mean (SD)", "setting": "DW8", "value": "−1.1 (15.51)"},
      {"measurement": "CREATININE (RATE BLANKED) Change from Baseline, Median", "setting": "DW8", "value": 0.0},
      {"measurement": "CREATININE (RATE BLANKED), Mean (SD)", "setting": "DW8", "value": "81.9 (27.34)"},
      {"measurement": "GFR Change from Baseline, Mean (SD)", "setting": "DW8", "value": "−0.1 (19.13)"},
      {"measurement": "GFR Change from Baseline, Median", "setting": "DW8", "value": 1.1},
      {"measurement": "GFR, Mean (SD)", "setting": "DW8", "value": "89.1 (39.16)"},
      {"measurement": "GFR, Median", "setting": "DW8", "value": 81.6},
      {"measurement": "UREA NITROGEN Change from Baseline, Mean (SD)", "setting": "DW8", "value": "−0.4 (2.02)"},
      {"measurement": "UREA NITROGEN Change from Baseline, Median", "setting": "DW8", "value": "−0.3"},
      {"measurement": "UREA NITROGEN, Mean (SD)", "setting": "DW8", "value": "5.3 (1.58)"},
      {"measurement": "UREA NITROGEN, Median", "setting": "DW8", "value": 5.2},
      {"measurement": "CREATININE (RATE BLANKED), Median", "setting": "DW8", "value": 71, "unit": "µmol/L"},
      {"measurement": "CREATININE (RATE BLANKED) Change from Baseline, Mean (SD)", "setting": "DW12", "value": "1.8 (16.71)"},
      {"measurement": "CREATININE (RATE BLANKED) Change from Baseline, Median", "setting": "DW12", "value": 8.0},
      {"measurement": "CREATININE (RATE BLANKED), Mean (SD)", "setting": "DW12", "value": "86.8 (29.41)"},
      {"measurement": "GFR Change from Baseline, Mean (SD)", "setting": "DW12", "value": "−3.1 (12.18)"},
      {"measurement": "GFR Change from Baseline, Median", "setting": "DW12", "value": "−5.0"},
      {"measurement": "GFR, Mean (SD)", "setting": "DW12", "value": "85.7 (39.48)"},
      {"measurement": "GFR, Median", "setting": "DW12", "value": 76.5},
      {"measurement": "UREA NITROGEN Change from Baseline, Mean (SD)", "setting": "DW12", "value": "−0.8 (1.86)"},
      {"measurement": "UREA NITROGEN Change from Baseline, Median", "setting": "DW12", "value": "−0.5"},
      {"measurement": "UREA NITROGEN, Mean (SD)", "setting": "DW12", "value": "4.8 (1.69)"},
      {"measurement": "UREA NITROGEN, Median", "setting": "DW12", "value": 4.4},
      {"measurement": "CREATININE (RATE BLANKED), Median", "setting": "DW12", "value": 80, "unit": "µmol/L"},
      {"measurement": "CREATININE (RATE BLANKED) Change from Baseline, Mean (SD)", "setting": "DW16", "value": "−1.6 (13.06)"},
      {"measurement": "CREATININE (RATE BLANKED) Change from Baseline, Median", "setting": "DW16", "value": 0.0},
      {"measurement": "CREATININE (RATE BLANKED), Mean (SD)", "setting": "DW16", "value": "82.1 (29.95)"},
      {"measurement": "GFR Change from Baseline, Mean (SD)", "setting": "DW16", "value": "0.8 (12.08)"},
      {"measurement": "GFR Change from Baseline, Median", "setting": "DW16", "value": 0.9},
      {"measurement": "GFR, Mean (SD)", "setting": "DW16", "value": "89.8 (38.02)"},
      {"measurement": "GFR, Median", "setting": "DW16", "value": 84.1},
      {"measurement": "UREA NITROGEN Change from Baseline, Mean (SD)", "setting": "DW16", "value": "−0.5 (2.13)"},
      {"measurement": "UREA NITROGEN Change from Baseline, Median", "setting": "DW16", "value": "−0.3"},
      {"measurement": "UREA NITROGEN, Mean (SD)", "setting": "DW16", "value": "5.0 (1.73)"},
      {"measurement": "UREA NITROGEN, Median", "setting": "DW16", "value": 4.4},
      {"measurement": "CREATININE (RATE BLANKED), Median", "setting": "DW16", "value": 79, "unit": "µmol/L"},
      {"measurement": "CREATININE (RATE BLANKED) Change from Baseline, Mean (SD)", "setting": "DW20", "value": "0.7 (13.11)"},
      {"measurement": "CREATININE (RATE BLANKED) Change from Baseline, Median", "setting": "DW20", "value": 0.0},
      {"measurement": "CREATININE (RATE BLANKED), Mean (SD)", "setting": "DW20", "value": "85.6 (28.77)"},
      {"measurement": "GFR Change from Baseline, Mean (SD)", "setting": "DW20", "value": "−2.0 (16.60)"},
      {"measurement": "GFR Change from Baseline, Median", "setting": "DW20", "value": 0.9},
      {"measurement": "GFR, Mean (SD)", "setting": "DW20", "value": "83.2 (32.77)"},
      {"measurement": "GFR, Median", "setting": "DW20", "value": 74.0},
      {"measurement": "UREA NITROGEN Change from Baseline, Mean (SD)", "setting": "DW20", "value": "−0.6 (1.94)"},
      {"measurement": "UREA NITROGEN Change from Baseline, Median", "setting": "DW20", "value": "−0.3"},
      {"measurement": "UREA NITROGEN, Mean (SD)", "setting": "DW20", "value": "5.0 (1.80)"},
      {"measurement": "UREA NITROGEN, Median", "setting": "DW20", "value": 5.2},
      {"measurement": "CREATININE (RATE BLANKED), Median", "setting": "DW20", "value": 77.5, "unit": "µmol/L"},
      {"measurement": "CREATININE (RATE BLANKED) Change from Baseline, Mean (SD)", "setting": "DW24", "value": "−2.9 (14.03)"},
      {"measurement": "CREATININE (RATE BLANKED) Change from Baseline, Median", "setting": "DW24", "value": "−0.5"},
      {"measurement": "CREATININE (RATE BLANKED), Mean (SD)", "setting": "DW24", "value": "82.8 (31.57)"}
    ]}
  ]
}
